Data published in US20180071339A1, “COMBINATION OF PHARMACEUTICAL PREPARATIONS FOR TUMOR CHEMOTHERAPY” (HUBEI SOUNDNY BIOTECHNOLOGY CO., LTD., priority 2015, published 2018).
Structures can show the parent of a compound that is named as a salt.

Legend:
[1] = test system: mouse bladder cancer cell line MB49; test: mouse orthotopic bladder cancer model; assay type: in vivo, C57 mice; conditions: compared to mice firstly treated with cell vesicles then administered with Dox or HCPT; bladder infusion; bladders taken on day 12; FIGS. 7A and 7B
Experimental: Mouse bladder cancer cells are cultured with 10% of FBS 1640 basal medium until logarithm phase, and are resuspended with PBS into cell suspension with a cell concentration of 10^7/mL after being digested with trypsin. After C57 mice were anesthetized, 100 uL 0.1 mg/mL of polylysin solution are infused into mouse bladder using intravenous indwelling needle for pre-treatment for 20 min, and then 100 uL cell suspension are infused into the bladder after the polylysin solution is excreted, and cell suspension is excreted after holding for 1 h.
Preparing the cell vesicles with chemotherapy drugs wrapped therein: 100 uL chemotherapy drug (Dox or HCPT) are administered to 1 ml 1×10^7 mouse bladder cancer cells (1 mg/mL); 48 hours after administration of chemotherapy drugs, firstly centrifuging cell culture medium that contains apoptotic tumor cells at the rotational speed of 1300 rpm, 5000 rpm, respectively, each for 10 minutes and collecting a first supernatant; then centrifuging the first supernatant at the centrifugal force of 14000 g for 1 minute to remove cells and debris, and collecting a second supernatant; further centrifuging the second supernatant at the centrifugal force of 14000 g for 1 hour, then collecting precipitate to obtain cell vesicles with chemotherapy drugs wrapped therein. […]

[2] = test system: human breast cancer cells MCF-7; test: excretion of doxorubicin drugs from MCF-7 cells, two-photon confocal microscope; assay type: cell-based; conditions: 1 μg/ml doxorubicin for 4 hours; test group first incubated with 5×10^5 cell vesicles for 12 hours; FIG. 2
Experimental: Human breast cancer cell line MCF-7 is cultured in RPMI Medium 1640, so that the cell amount reaches 2×10^7/ml; human breast cancer cell line MCF-7 is exposed to UV radiation for 60 minutes; 18 hours after UV radiation, human breast cancer cell line MCF-7 starts apoptosis, which is observed under microscope; collecting cell vesicles from the above apoptotic tumor cells by centrifugation or filtration procedure, as described in Example 1;
1×10^5 normally cultured human breast cancer cells MCF-7 are planted in a confocal dish, and then 5×10^5 cell vesicles prepared above and derived from human breast cancer cell line MCF-7 are added into the confocal dish and incubated with MCF-7 for 12 hours, and used as a test group (i.e., MCF-7 cells+MPs); 1×10^5 human breast cancer cells MCF-7 without adding the cells vesicles are used as a control group (i.e., MCF-7 cells).
The test group and the control group are washed once with PBS respectively, and then a medium containing 1 μg/ml of doxorubicin drugs is added, 4 hours later, two groups are stabilized with 4% of paraformaldehyde for 20 minutes, the excretion of doxorubicin drugs from the human breast cancer cell MCF-7 in test group and control group is observed under the Two-photon confocal microscope.

[3] = test system: human breast cancer cells MCF-7; test: uptake of doxorubicin drugs by MCF-7, two-photon confocal microscope; assay type: cell-based; conditions: 1 μg/ml doxorubicin hydrochloride for 4 hours, test group first incubated with cell vesicles for 12 hours, FIG. 3
Experimental: (§1) Cell vesicles derived from human breast cancer cell line MCF-7 are obtained in accordance with the method in Example 2;
(§2) 1×10^5 human breast cancer cells MCF-7, tumor repopulating cells MCF-7/TRC, human breast cancer doxorubicin hydrochloride drug resistant cells ADR/MCF-7 were planted in the confocal dish, respectively. Cell vesicles that prepared above and derived from human breast cancer cell lines MCF-7 are added to the dish containing the above three kinds of cells respectively, with amount of 5×10^5/dish, and incubated for 12 hours, used as a test group;
(§3) Human breast cancer cells MCF-7, tumor repopulating cells MCF-7/TRC, and human breast cancer doxorubicin hydrochloride drug resistant strains ADR/MCF-7 without addition of cell vesicles are used as a control group. […]

[4] = test system: tumor repopulating cells MCF-7/TRC; test: uptake of doxorubicin drugs by MCF-7/TRC, two-photon confocal microscope; assay type: cell-based, human; conditions: 1 μg/ml doxorubicin hydrochloride for 4 hours, test group first incubated with cell vesicles for 12 hours, FIG. 3
Excerpt: as §1
5000 MCF-7 human breast cancer cells are planted in the three-dimensional fibrous protein gel, and after 5 days culturing, a stem cell-like colony is formed, these cells are referred to as tumor repopulating cells, that is, MCF-7/TRC.
as §2, §3

[5] = test system: human breast cancer doxorubicin hydrochloride drug resistant strains ADR/MCF-7; test: uptake of doxorubicin drugs by ADR/MCF-7, two-photon confocal microscope; assay type: cell-based; conditions: 1 μg/ml doxorubicin hydrochloride for 4 hours, test group first incubated with cell vesicles for 12 hours, FIG. 3
Experimental: as §1, §2, §3

Row | Compound | treatment effects [1] | doxorubicin drug quantity in nucleus [2] | excretion of doxorubicin drugs from MCF-7 cells [2] | doxorubicin drug content in the nucleus [3] | drug content in nucleus [4] | drug content in nucleus [5]
1 | CC[C@@]1(O)C(=O)OCc2c1cc1n(c2=O)Cc2cc3cc(O)ccc3nc2-1 [HCPT, hydroxycamptothecin] | weaker treatment effects |  |  |  |  | 
2 | COc1cccc2c1C(=O)c1c(O)c3c(c(O)c1C2=O)C[C@@](O)(C(=O)CO)C[C@@H]3O[C@H]1C[C@H](N)[C@H](O)[C@H](C)O1 [doxorubicin, doxorubicin hydrochloride] | weaker treatment effects | drug quantity in nucleus is not high | excrete a great number of drugs outside of the cell membrane | not high | less than that in control group MCF-7 | less than that in control group MCF-7
